Assay results from patent US10405547B2, “Substituted cyclic amides as herbicides” (FMC Corporation, priority 2015, dated 2019).

Tests used:
Assay type in all cases: in vivo
[1] = test system: barnyardgrass (Echinochloa crus-galli); experiment: Test A preemergence, barnyardgrass; conditions: 0 to 100 scale (0 no effect, 100 complete control)
In short: (§1)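 Greenhouse pot test in loam/sand soil. Pre: directed soil spray after seeding. Post: 1–2-leaf plants, 2–10 cm. Formulation: non-phytotoxic solvent + surfactant. Visual rating vs untreated controls at ~10 d, 0 (no effect) to 100 (complete control).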

kochia (Kochia scoparia) [2] = experiment: Test A preemergence, kochia; conditions: 0 to 100 scale (0 no effect, 100 complete control)
In short: as §1

[3] = test system: ragweed (common ragweed, Ambrosia elatior); experiment: Test A preemergence, ragweed; conditions: 0 to 100 scale (0 no effect, 100 complete control)
In short: as §1

[4] = test system: ryegrass, Italian (Lolium multiflorum); experiment: Test A preemergence, Italian ryegrass; conditions: 0 to 100 scale (0 no effect, 100 complete control)
In short: as §1

[5] = test system: foxtail, giant (Setaria faberii); experiment: Test A preemergence, giant foxtail; conditions: 0 to 100 scale (0 no effect, 100 complete control)
In short: as §1

[6] = test system: pigweed (Amaranthus retroflexus); experiment: Test A preemergence, pigweed; conditions: 0 to 100 scale (0 no effect, 100 complete control)
In short: as §1

[7] = test system: barnyardgrass (Echinochloa crus-galli); experiment: Test A postemergence, barnyardgrass; conditions: visual injury, 0 to 100 scale (0 no effect, 100 complete control), approximately 10 days
In short: as §1

kochia (Kochia scoparia) [8] = experiment: Test A postemergence, kochia; conditions: visual injury, 0 to 100 scale (0 no effect, 100 complete control), approximately 10 days
In short: as §1

[9] = test system: ragweed (common ragweed, Ambrosia elatior); experiment: Test A postemergence, ragweed; conditions: visual injury, 0 to 100 scale (0 no effect, 100 complete control), approximately 10 days
In short: as §1

[10] = test system: ryegrass, Italian (Lolium multiflorum); experiment: Test A postemergence, Italian ryegrass; conditions: visual injury, 0 to 100 scale (0 no effect, 100 complete control), approximately 10 days
In short: as §1

[11] = test system: foxtail, giant (Setaria faberii); experiment: Test A postemergence, giant foxtail; conditions: visual injury, 0 to 100 scale (0 no effect, 100 complete control), approximately 10 days
In short: as §1

[12] = test system: pigweed (Amaranthus retroflexus); experiment: Test A postemergence, pigweed; conditions: visual injury, 0 to 100 scale (0 no effect, 100 complete control), approximately 10 days
In short: as §1

[13] = test system: blackgrass (Alopecurus myosuroides); experiment: Test A postemergence, blackgrass; conditions: visual injury, 0 to 100 scale (0 no effect, 100 complete control), approximately 10 days
In short: as §1

[14] = test system: galium (catchweed bedstraw, Galium aparine); experiment: Test A postemergence, galium; conditions: visual injury, 0 to 100 scale (0 no effect, 100 complete control), approximately 10 days
In short: as §1

[15] = test system: wheat (Triticum aestivum); experiment: Test A postemergence, wheat; conditions: visual injury, 0 to 100 scale (0 no effect, 100 complete control), approximately 10 days
In short: as §1

corn (Zea mays) = experiment: Test A postemergence, corn; conditions: visual injury, 0 to 100 scale (0 no effect, 100 complete control), approximately 10 days
In short: as §1

rice (Oryza sativa) = experiment: Test B flooded paddy test, rice; conditions: applied to paddy water, visual rating after 13 to 15 days, scale 0 (no effect) to 100 (complete control)
In short: (§2)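 Flooded 3 cm over soil; compound into paddy water; depth kept constant. Greenhouse 13–15 d.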

[16] = test system: sedge, umbrella (small-flower umbrella sedge, Cyperus difformis); experiment: Test B flooded paddy test, umbrella sedge; conditions: applied to paddy water, visual rating after 13 to 15 days, scale 0 (no effect) to 100 (complete control)
In short: as §2

[17] = test system: ducksalad (Heteranthera limosa); experiment: Test B flooded paddy test, ducksalad; conditions: applied to paddy water, visual rating after 13 to 15 days, scale 0 (no effect) to 100 (complete control)
In short: as §2

[18] = test system: barnyardgrass (Echinochloa crus-galli); experiment: Test B flooded paddy test, barnyardgrass; conditions: applied to paddy water, visual rating after 13 to 15 days, scale 0 (no effect) to 100 (complete control)
In short: as §2

SMILES | Plant response rating, Barnyardgrass ([1]; 125 g ai/ha) | Plant response rating, Barnyardgrass ([1]; 500 g ai/ha) | Plant response rating, Kochia (kochia (Kochia scoparia) [2]; 125 g ai/ha) | Plant response rating, Kochia (kochia (Kochia scoparia) [2]; 500 g ai/ha) | Plant response rating, Ragweed ([3]; 125 g ai/ha) | Plant response rating, Ragweed ([3]; 500 g ai/ha) | Plant response rating, Ryegrass, Italian ([4]; 125 g ai/ha) | Plant response rating, Ryegrass, Italian ([4]; 500 g ai/ha) | Plant response rating, Foxtail, Giant ([5]; 125 g ai/ha) | Plant response rating, Foxtail, Giant ([5]; 500 g ai/ha) | Plant response rating, Pigweed ([6]; 125 g ai/ha) | Plant response rating, Pigweed ([6]; 500 g ai/ha) | Plant response rating, Barnyardgrass ([7]; 125 g ai/ha) | Plant response rating, Barnyardgrass ([7]; 500 g ai/ha) | Plant response rating, Kochia (kochia (Kochia scoparia) [8]; 125 g ai/ha) | Plant response rating, Kochia (kochia (Kochia scoparia) [8]; 500 g ai/ha) | Plant response rating, Ragweed ([9]; 125 g ai/ha) | Plant response rating, Ragweed ([9]; 500 g ai/ha) | Plant response rating, Ryegrass, Italian ([10]; 125 g ai/ha) | Plant response rating, Ryegrass, Italian ([10]; 500 g ai/ha) | other results
O=C1NCC(c2cccc(OCc3ccccc3)c2)C1C(=O)Nc1ccccc1F (stereo not drawn) [Compound 63] | 0 | 0 | 0 | 0 | 0 | 0 | 0 | 0 | 0 | 0 | 0 | 0 | 0 | 0 | 0 | 0 | 0 | 0 | 0 | 0 | Plant response rating, Foxtail, Giant ([11]; 125 g ai/ha): 0; Plant response rating, Foxtail, Giant ([11]; 500 g ai/ha): 0; Plant response rating, Pigweed ([12]; 125 g ai/ha): 0; Plant response rating, Pigweed ([12]; 500 g ai/ha): 0; Plant response rating, Blackgrass ([13]; 125 g ai/ha): 0; Plant response rating, Blackgrass ([13]; 500 g ai/ha): 0; Plant response rating, Galium ([14]; 125 g ai/ha): 0; Plant response rating, Galium ([14]; 500 g ai/ha): 0; Plant response rating, Wheat ([15]; 125 g ai/ha): 0; Plant response rating, Wheat ([15]; 500 g ai/ha): 0; Plant response rating, Corn (corn (Zea mays); 125 g ai/ha): 0; Plant response rating, Corn (corn (Zea mays); 500 g ai/ha): 0; Plant response rating, Rice (Flood) (rice (Oryza sativa); 500 g ai/ha): 0; Plant response rating, Sedge, Umbrella (Flood) ([16]; 500 g ai/ha): 0; Plant response rating, Ducksalad (Flood) ([17]; 500 g ai/ha): 35; Plant response rating, Barnyardgrass (Flood) ([18]; 500 g ai/ha): 0
O=C1NCC(c2cccc(OCc3ccccc3)c2)C1C(=O)Nc1ccccc1Cl (stereo not drawn) [Compound 67] | 0 | 0 | 0 | 0 | 0 | 0 | 0 | 0 | 0 | 0 | 0 | 0 | 0 | 0 | 0 | 0 | 0 | 0 | 0 | 0 | Plant response rating, Foxtail, Giant ([11]; 125 g ai/ha): 0; Plant response rating, Foxtail, Giant ([11]; 500 g ai/ha): 0; Plant response rating, Pigweed ([12]; 125 g ai/ha): 0; Plant response rating, Pigweed ([12]; 500 g ai/ha): 0; Plant response rating, Blackgrass ([13]; 125 g ai/ha): 0; Plant response rating, Blackgrass ([13]; 500 g ai/ha): 0; Plant response rating, Galium ([14]; 125 g ai/ha): 0; Plant response rating, Galium ([14]; 500 g ai/ha): 0; Plant response rating, Wheat ([15]; 125 g ai/ha): 0; Plant response rating, Wheat ([15]; 500 g ai/ha): 0; Plant response rating, Corn (corn (Zea mays); 125 g ai/ha): 0; Plant response rating, Corn (corn (Zea mays); 500 g ai/ha): 0; Plant response rating, Rice (Flood) (rice (Oryza sativa); 500 g ai/ha): 0; Plant response rating, Sedge, Umbrella (Flood) ([16]; 500 g ai/ha): 0; Plant response rating, Ducksalad (Flood) ([17]; 500 g ai/ha): 0; Plant response rating, Barnyardgrass (Flood) ([18]; 500 g ai/ha): 0
O=C1NCC(c2ccccc2Cn2ccc(C(F)(F)F)n2)C1C(=O)Nc1ccccc1F (stereo not drawn) [Compound 59] | 0 | 40 | 0 | 0 | 0 | 0 | 0 | 0 | 0 | 50 | 0 | 0 | 0 | 30 | 0 | 0 | 0 | 0 | 0 | 0 | Plant response rating, Foxtail, Giant ([11]; 125 g ai/ha): 0; Plant response rating, Foxtail, Giant ([11]; 500 g ai/ha): 20; Plant response rating, Pigweed ([12]; 125 g ai/ha): 0; Plant response rating, Pigweed ([12]; 500 g ai/ha): 0; Plant response rating, Blackgrass ([13]; 125 g ai/ha): 0; Plant response rating, Blackgrass ([13]; 500 g ai/ha): 0; Plant response rating, Galium ([14]; 125 g ai/ha): 0; Plant response rating, Galium ([14]; 500 g ai/ha): 0; Plant response rating, Wheat ([15]; 125 g ai/ha): 0; Plant response rating, Wheat ([15]; 500 g ai/ha): 0; Plant response rating, Corn (corn (Zea mays); 125 g ai/ha): 0; Plant response rating, Corn (corn (Zea mays); 500 g ai/ha): 0; Plant response rating, Rice (Flood) (rice (Oryza sativa); 250 g ai/ha): 0; Plant response rating, Sedge, Umbrella (Flood) ([16]; 250 g ai/ha): 0; Plant response rating, Ducksalad (Flood) ([17]; 250 g ai/ha): 0; Plant response rating, Barnyardgrass (Flood) ([18]; 250 g ai/ha): 0
O=C1NCC(c2cccc(OC(F)(F)C(F)OC(F)(F)F)c2)C1C(=O)Nc1ccccc1F (stereo not drawn) [Compound 40] | 50 | 90 | 0 | 90 | 0 | 20 | 0 | 0 | 90 | 90 | 0 | 0 | 50 | 40 | 0 | 0 | 0 | 0 | 0 | 0 | Plant response rating, Foxtail, Giant ([11]; 125 g ai/ha): 40; Plant response rating, Foxtail, Giant ([11]; 500 g ai/ha): 60; Plant response rating, Pigweed ([12]; 125 g ai/ha): 0; Plant response rating, Pigweed ([12]; 500 g ai/ha): 0; Plant response rating, Blackgrass ([13]; 125 g ai/ha): 0; Plant response rating, Blackgrass ([13]; 500 g ai/ha): 30; Plant response rating, Galium ([14]; 125 g ai/ha): 40; Plant response rating, Galium ([14]; 500 g ai/ha): 40; Plant response rating, Wheat ([15]; 125 g ai/ha): 0; Plant response rating, Wheat ([15]; 500 g ai/ha): 20; Plant response rating, Corn (corn (Zea mays); 125 g ai/ha): 0; Plant response rating, Corn (corn (Zea mays); 500 g ai/ha): 0; Plant response rating, Rice (Flood) (rice (Oryza sativa); 250 g ai/ha): 0; Plant response rating, Sedge, Umbrella (Flood) ([16]; 250 g ai/ha): 0; Plant response rating, Ducksalad (Flood) ([17]; 250 g ai/ha): 70; Plant response rating, Barnyardgrass (Flood) ([18]; 250 g ai/ha): 20
